Read-outs that look alike come from different tables or passages of the source.
Experiments:
[1] = test system: CD34+-derived SCD erythroid cells; test: Hemoglobin (HbF, HbS, HbA2) content by HPLC in differentiated CD34+-derived SCD erythroid cells; format: cell-based, human
Description: To obtain the data presented here, we used the lentiviral vector pCL-ZF-Ldb1, (FIG. 11, top vector map), which carries a zinc-finger protein that specifically binds the γ-globin promoters, fused to the self-association (SA) domain of Ldb1, as well as a green fluorescent protein under the control of the erythroid specific ankyrin promoter. […] Cell, 2014. 158(4): p. 849-60].
In particular, we analyzed the mRNA and protein content of erythroblasts derived from 10 SCD subjects. CD34+ cells isolated from peripheral blood mononuclear cells (PBMCs) were frozen and used for independent replicate experiments. Infection with pCL-ZF-Ldb1 was performed on pro-erythroblast within the first 10 days of the expansion phase.
A scheme of the experimental procedures is illustrated in FIG. 16. […] Exp Hematol, 2005. 33(12): p. […] J Clin Invest, 2008. 118(1): p. […] Nat Med, 2013. 19(3): p. 291-4]. Studies were performed on day 8 of differentiation phase, at the orthochromatophilic stage when high amounts of hemoglobin were accumulated.
(§1) CD34+ cells selection from blood samples was performed by immunomagnetic separation, using the CD34 microbeads kit (Miltenyi Biotec Inc., Auburn, Calif.). These cells were then expanded following a modified version of the protocol described by Leberbauer and colleagues. Cells were seeded in 5 mL of serum-free StemSpan with 50 μL of StemSpan CC-100 cytokine cocktail (both from Stemcell Technologies, Vancouver, BA, Canada), 2 U/mL Erytrhopoietin (Amgen, Thousand Oaks, Calif.), 10^-6 M dexamethasone (Sigma) and 1% penicillin streptomycin. CD34+ cultures were kept undifferentiated by refreshing the medium twice a week and density gradient centrifugation was used to remove both dead and spontaneously differentiating cells. At this stage cells were either frozen (with 50% characterized Hyclone FBS, 10% DMSO, Sigma, and 40% Iscove's Modified DMEM, Cellgro), or used for experiments. After 10 days in phase I, cells were transferred into phase II media containing α-modified essential medium supplemented with 30% fetal calf serum and 10^-5 M β-mercaptoethanol. Erythropoietin was added (5 U/mL) to stimulate erythroid differentiation.

SCD erythroblasts = test: Erythroid cell count / viability (benzidine+ cells) of treated SCD erythroblasts; conditions: same treatments and doses as HbF induction comparison
Protocol: as §1

[2] = SCD erythroid cells, summary in description
[3] = day 8 of differentiation, same treatments and doses as net HbF increase

Nc1cccc2c1C(=O)N(C1CCC(=O)NC1=O)C2=O (stereo not shown) [pomalidomide]
net HbS decrease ([1]; 192 h): 11.61−%±9.27
net HbF increase ([1]; 192 h, 30 µM): 11.84%±9.02
viability compared to untreated samples (SCD erythroblasts): reduced viability

NC(=O)NO [hydroxyurea]
induction of HbF (qualitative summary) [1, 2]: marginal HbF induction
net HbS decrease [1, 3]: −3.48%±4.68
viability compared to untreated samples (SCD erythroblasts): reduced viability

CCCC(=O)[O-].[Na+] [butyrate, sodium butyrate]
net HbF increase [1]: 4.84%±5.03
induction of HbF (qualitative summary) [1, 2]: marginal HbF induction
net HbS decrease [1, 3]: −4.90%±7.94
viability compared to untreated samples (SCD erythroblasts): reduced viability

N[C@@H]1C[C@H]1c1ccccc1 (racemic) [tranyl-cypromine, tranylcypromine]
induction of HbF (qualitative summary) [1]: intermediate effect
net HbF increase [1]: 8.08%±6.28
net HbS decrease [1]: −6.93%±6.64
